Laboratory results from patent US20210347727A1 (BLADE THERAPEUTICS, INC., priority 2017, published 2021).
pIC50: −log10 of the molar value.

What was measured:
[1] = tested on: calpain activity in SH-SY5Y cells; assay: SH-SY5Y cellular calpain activity, Suc-LLVY-AMC fluorescence assay; type: cell-based; settings: Suc-LLVY-AMC substrate
Description: Calpain activity in SH-SY5Y cells and inhibition thereof were assessed by means of a homogeneous, fluorescence assay that uses the cell-permeable and pro-fluorescent calpain substrate Suc-LLVY-AMC (Sigma-Aldrich Inc). Upon intracellular calpain cleavage of Suc-LLVY-AMC, fluorescent amino-methyl-coumarin (AMC) is released into the media resulting in a continuous increase in fluorescence signal that is proportional to intra-cellular calpain activity.
Assays were typically setup by seeding SH-SY5Y cells in black 384-well plates at 40 k/per well in RPMI-1640 containing 1% serum followed by 37 C overnight incubation. Next morning, cells were pre-incubated for 30 min with serially diluted compounds followed by addition of 100 uM of Suc-LLVY-AMC substrate. The continuous increase in AMC fluorescence is monitored using a FLIPR, Tetra plate reader (Molecular Devices Inc) and slopes measured to report calpain activity. Dose response curves (slopes vs. log inhibitor concentration) were typically fit to a 4-parameter logistic function to extract IC50 values.

Human Calpain 2/NS1 = target: T1, Human Calpain 2/NS1 (Homo sapiens, UniProt P17655); assay: Biochemical inhibition of calpain 2, continuous fluorescence (FRET substrate) assay; settings: mean; read-out: Human Calpain 2/NS1 1C50 [sic] (nM)_MEAN
T1 sequence (P17655 1-700): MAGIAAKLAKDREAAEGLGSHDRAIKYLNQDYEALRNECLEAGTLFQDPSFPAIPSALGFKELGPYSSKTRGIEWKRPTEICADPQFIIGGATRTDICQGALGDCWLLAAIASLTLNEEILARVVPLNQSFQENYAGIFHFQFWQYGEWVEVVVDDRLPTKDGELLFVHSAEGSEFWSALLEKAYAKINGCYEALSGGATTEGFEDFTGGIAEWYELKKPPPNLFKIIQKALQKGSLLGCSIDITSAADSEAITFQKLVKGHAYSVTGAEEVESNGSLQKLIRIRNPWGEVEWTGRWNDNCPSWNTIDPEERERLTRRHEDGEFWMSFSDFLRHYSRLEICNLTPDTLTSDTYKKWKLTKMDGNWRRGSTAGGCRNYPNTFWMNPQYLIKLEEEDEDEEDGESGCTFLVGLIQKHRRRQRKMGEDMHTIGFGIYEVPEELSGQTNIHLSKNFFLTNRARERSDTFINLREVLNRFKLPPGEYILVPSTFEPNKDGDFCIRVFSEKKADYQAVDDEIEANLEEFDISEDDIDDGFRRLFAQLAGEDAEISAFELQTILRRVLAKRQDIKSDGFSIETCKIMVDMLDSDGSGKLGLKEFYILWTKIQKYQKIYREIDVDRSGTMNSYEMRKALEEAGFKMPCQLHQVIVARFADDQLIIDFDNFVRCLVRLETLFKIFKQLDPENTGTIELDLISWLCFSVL
T1 sequence (P04632 1-268 partner): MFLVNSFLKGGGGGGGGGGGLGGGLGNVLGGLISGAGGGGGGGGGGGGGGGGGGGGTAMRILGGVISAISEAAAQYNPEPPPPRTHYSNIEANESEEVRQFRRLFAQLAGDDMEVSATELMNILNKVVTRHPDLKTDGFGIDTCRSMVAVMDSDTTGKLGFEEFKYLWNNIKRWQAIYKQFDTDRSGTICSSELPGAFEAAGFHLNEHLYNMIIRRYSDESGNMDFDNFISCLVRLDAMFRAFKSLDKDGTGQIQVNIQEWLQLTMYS
Description: (§1) Calpain 1, 2, and 9 activity and inhibition thereof are assessed by means of a continuous fluorescence assay. The SensoLyte 520 Calpain substrate (Anaspec Inc) is optimized for detecting calpain activity. This substrate contains a novel internally quenched 5-FAM/QXL™ 520 FRET pair. Calpains 1, 2, and 9 cleave the FRET substrate into two separate fragments resulting in an increase of 5-FAM fluorescence that is proportional to calpain activity.
(§2) Assays are typically setup in black 384-well plates using automated liquid handling as follows. Calpain assay base buffer typically contains 50 mM Tris, pH 7.5, 100 mM NaCl and 1 mM DTT. Inhibitors are serially diluted in DMSO and used to setup 2× mixtures with calpains in the aforementioned buffer. After incubation at ambient temperature (25 C), the reaction is initiated by adding a 2× mix of the fluorescent peptide substrate and CaCl2 (required for in-situ calpain activation) in the same buffer. Reaction progress curve data are typically collected for 10 min using excitation/emission wavelengths of 490 nm/520 nm on SpectraMax i3x or the FLIPR-Tetra plate readers (Molecular Devices Inc). Reaction rates were calculated from progress curve slopes typically over 1-5 min. Dose response curves (rate vs. log inhibitor concentration) were typically fit to a 4-parameter logistic function to extract IC50 values.

Human Calpain 9/NS1 = target: T2, Human Calpain 9/NS1 (Homo sapiens, UniProt O14815); assay: Biochemical inhibition of calpain 9, continuous fluorescence (FRET substrate) assay; settings: mean; read-out: Human Calpain 9/NS1 IC50 (nM)_MEAN
T2 sequence (O14815 1-690): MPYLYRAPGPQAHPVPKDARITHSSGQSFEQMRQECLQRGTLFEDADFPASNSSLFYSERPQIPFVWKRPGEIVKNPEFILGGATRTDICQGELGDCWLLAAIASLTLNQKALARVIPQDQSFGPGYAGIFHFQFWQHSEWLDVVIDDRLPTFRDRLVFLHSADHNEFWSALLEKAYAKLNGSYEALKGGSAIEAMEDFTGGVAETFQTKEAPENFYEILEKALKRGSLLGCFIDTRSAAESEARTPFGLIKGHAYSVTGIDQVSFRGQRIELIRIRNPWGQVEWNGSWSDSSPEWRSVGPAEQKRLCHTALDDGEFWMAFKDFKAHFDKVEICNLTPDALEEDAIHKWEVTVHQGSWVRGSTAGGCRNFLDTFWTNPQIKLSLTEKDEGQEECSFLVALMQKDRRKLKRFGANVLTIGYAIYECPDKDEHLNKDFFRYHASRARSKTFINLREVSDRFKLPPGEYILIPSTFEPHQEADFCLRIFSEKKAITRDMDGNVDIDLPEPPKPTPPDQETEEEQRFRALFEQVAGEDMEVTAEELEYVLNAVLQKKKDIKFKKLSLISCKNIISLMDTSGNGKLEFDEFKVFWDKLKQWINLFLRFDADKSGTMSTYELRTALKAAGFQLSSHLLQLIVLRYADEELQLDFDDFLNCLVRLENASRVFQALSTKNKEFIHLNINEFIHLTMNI
T2 sequence (P04632 1-268 partner): T1 sequence (P04632 1-268 partner)
Description: as §1, §2

Human Calpain 1/NS1 = target: T3, Human Calpain 1/NS1 (Homo sapiens, UniProt P07384); assay: Biochemical inhibition of calpain 1, continuous fluorescence (FRET substrate) assay; settings: mean; read-out: Human Calpain 1/NS1 IC50 (nM)_MEAN
T3 sequence (P07384 1-714): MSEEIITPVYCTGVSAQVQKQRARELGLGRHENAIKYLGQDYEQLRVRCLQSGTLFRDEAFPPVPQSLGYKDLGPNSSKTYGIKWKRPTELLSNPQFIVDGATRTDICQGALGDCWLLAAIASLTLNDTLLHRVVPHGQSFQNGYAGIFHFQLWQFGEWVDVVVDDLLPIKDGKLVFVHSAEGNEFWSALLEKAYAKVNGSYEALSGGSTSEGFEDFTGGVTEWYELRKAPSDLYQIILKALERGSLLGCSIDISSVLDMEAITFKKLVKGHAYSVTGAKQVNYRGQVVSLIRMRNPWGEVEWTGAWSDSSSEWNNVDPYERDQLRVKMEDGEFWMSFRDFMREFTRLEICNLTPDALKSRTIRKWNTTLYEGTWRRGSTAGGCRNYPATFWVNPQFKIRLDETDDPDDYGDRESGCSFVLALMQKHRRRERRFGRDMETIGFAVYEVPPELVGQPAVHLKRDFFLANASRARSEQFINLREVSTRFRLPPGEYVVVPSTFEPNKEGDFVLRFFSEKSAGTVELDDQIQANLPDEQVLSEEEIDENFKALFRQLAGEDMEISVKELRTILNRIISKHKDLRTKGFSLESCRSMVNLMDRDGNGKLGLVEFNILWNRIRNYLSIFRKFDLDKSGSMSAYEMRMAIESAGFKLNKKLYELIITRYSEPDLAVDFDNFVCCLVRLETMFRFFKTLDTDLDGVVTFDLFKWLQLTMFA
T3 sequence (P04632 1-268 partner): T1 sequence (P04632 1-268 partner)
Description: as §1, §2

[2] = tested on: calpain activity in SH-SY5Y cells (Spectrin); assay: SH-SY5Y Spectrin cellular calpain inhibition; type: cell-based

| SMILES | pIC50 [1] | IC50 (Human Calpain 2/NS1) [nM] | IC50 (Human Calpain 9/NS1) [nM] | IC50 (Human Calpain 1/NS1) [nM] | pIC50 [2] |
| --- | --- | --- | --- | --- | --- |
| Cc1cccc(C(=O)NC(Cc2ccccc2)C(=O)C(N)=O)c1C (stereo not drawn) [Compound 26, N-(4-AMINO-3,4-DIOXO-1-PHENYLBUTAN-2-YL)-2,3-DIMETHYLBENZAMIDE] | > 5.00 | < 3000 | < 3000 | < 3000 |  |
| O=CC(Cc1ccccc1)NC(=O)c1c(Cl)cccc1Br (stereo not drawn) [Compound 41, 2-BROMO-6-CHLORO-N-(1-OXO-3-PHENYLPROPAN-2-YL)BENZAMIDE] |  | < 3000 | < 3000 | 3000 to 10000 | 4.60 to 5.00 |
| NC(=O)C(=O)[C@H](Cc1ccccc1)NC(=O)c1ccccc1Br [Compound 36, (S)—N-(4-AMINO-3,4-DIOXO-1-PHENYLBUTAN-2-YL)-2-BROMOBENZAMIDE] | > 5.00 | < 3000 | < 3000 | < 3000 |  |
| NC(=O)C(=O)C(Cc1ccccc1)NC(=O)n1c2ccccc2c2ccccc21 (stereo not drawn) [Compound 8, N-(4-AMINO-3,4-DIOXO-1-PHENYLBUTAN-2-YL)-9H-CARBAZOLE-9-CARBOXAMIDE] | < 4.60 | > 10000 | > 10000 | 3000 to 10000 |  |
| NC(=O)C(=O)[C@H](Cc1ccccc1)NC(=O)c1c(Cl)cccc1C(F)(F)F [Compound 19, (S)—N-(4-AMINO-3,4-DIOXO-1-PHENYLBUTAN-2-YL)-2-CHLORO-6-(TRIFLUOROMETHYL)BENZAMIDE] | < 4.60 | < 3000 | < 3000 | < 3000 |  |
| NC(=O)C(=O)[C@H](Cc1ccccc1)NC(=O)c1ccc(-c2ccccc2)cc1 [Compound 23, (S)—N-(4-AMINO-3,4-DIOXO-1-PHENYLBUTAN-2-YL)-[1,1′-BIPHENYL]-4-CARBOXAMIDE] | > 5.00 | > 10000 | > 10000 | < 3000 |  |
| O=C(NC1CC1)C(=O)[C@H](Cc1ccccc1)NC(=O)c1c(Cl)cccc1Cl [Compound 2, (S)-2,6-DICHLORO-N-(4-(CYCLOPROPYLAMINO)-3,4-DIOXO-1-PHENYLBUTAN-2-YL)BENZAMIDE] | > 5.00 | < 3000 | < 3000 | < 3000 |  |
| NC(=O)C(=O)C(Cc1ccccc1)NC(=O)C1c2ccccc2-c2ccccc21 (stereo not drawn) [Compound 10, N-(4-AMINO-3,4-DIOXO-1-PHENYLBUTAN-2-YL)-9H-FLUORENE-9-CARBOXAMIDE] | 4.60 to 5.00 | 3000 to 10000 | > 10000 | > 10000 |  |
| NC(=O)C(=O)[C@H](Cc1ccccc1)NC(=O)c1c(Cl)cccc1-c1ccccc1 [Compound 21, (S)—N-(4-AMINO-3,4-DIOXO-1-PHENYLBUTAN-2-YL)-3-CHLORO-[1,1′-BIPHENYL]-2-CARBOXAMIDE] | < 4.60 | < 3000 | < 3000 | < 3000 |  |
| NC(=O)C(=O)C(Cc1ccccc1)NC(=O)c1cccc(F)c1 (stereo not drawn) [Compound 25, N-(4-AMINO-3,4-DIOXO-1-PHENYLBUTAN-2-YL)-3-FLUOROBENZAMIDE] | > 5.00 | < 3000 | < 3000 | < 3000 |  |
| COc1cccc(OC)c1C(=O)N[C@@H](Cc1ccccc1)C(=O)C(N)=O [Compound 18, (S)—N-(4-AMINO-3,4-DIOXO-1-PHENYLBUTAN-2-YL)-2,6-DIMETHOXYBENZAMIDE] | < 4.60 | > 10000 | 3000 to 10000 | > 10000 |  |
| COc1ccc(Cl)cc1C(=O)N[C@@H](Cc1ccccc1)C(=O)C(N)=O [Compound 17, (S)—N-(4-AMINO-3,4-DIOXO-1-PHENYLBUTAN-2-YL)-5-CHLORO-2-METHOXYBENZAMIDE] | > 5.00 | < 3000 | < 3000 | < 3000 |  |
| NC(=O)C(=O)[C@H](Cc1ccccc1)NC(=O)c1c(C(F)(F)F)cccc1C(F)(F)F [Compound 20, (S)—N-(4-AMINO-3,4-DIOXO-1-PHENYLBUTAN-2-YL)-2,6-BIS(TRIFLUOROMETHYL)BENZAMIDE] | 4.60 to 5.00 | 3000 to 10000 | < 3000 | < 3000 |  |
| NC(=O)C(=O)C(Cc1ccccc1)NC(=O)N1c2ccccc2Oc2ccccc21 (stereo not drawn) [Compound 6, N-(4-AMINO-3,4-DIOXO-1-PHENYLBUTAN-2-YL)-10H-PHENOXAZINE-10-CARBOXAMIDE] | < 4.60 | < 3000 | > 10000 | < 3000 |  |
| NC(=O)C(=O)[C@H](Cc1ccccc1)NC(=O)c1ccc(F)cc1 [Compound 4, (S)—N-(4-AMINO-3,4-DIOXO-1-PHENYLBUTAN-2-YL)-4-FLUOROBENZAMIDE] | 4.60 to 5.00 | 3000 to 10000 | 3000 to 10000 | > 10000 |  |
